Experiments:
Test in all cases: 3' UTR reporter interaction score (median-centred robust z-score of log2 firefly/Renilla activity); higher = less repression of the 3' UTR reporter
Conditions in all cases: HEK293T; 48 h
MYT1L = test system: MYT1L
Method in brief: (§1)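 Firefly and Renilla luciferase activities were read 48 h post-transfection in HEK293T cells (10,000/well, 96-well plates). The cells had received 100 ng firefly luc2P reporter bearing the gene's 3' UTR, 20 ng Renilla pRL-TK control and 2.5 pmol miRNA mimic via DharmaFECT Duo. The interaction score, where more negative means interaction, is a per-plate robust z-score (median, median absolute deviation) of the log firefly/Renilla ratio, median-centred per miRNA and averaged over at least two independent screens.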

BRCA2 = test system: BRCA2
Method in brief: as §1

MYC = test system: MYC
Method in brief: as §1

MYB = test system: MYB
Method in brief: as §1

NOTCH1 = test system: NOTCH1
Method in brief: as §1

PHOX2B = test system: PHOX2B
Method in brief: as §1

TP53 = test system: TP53
Method in brief: as §1

RB1 = test system: RB1
Method in brief: as §1

ZEB2 = test system: ZEB2
Method in brief: as §1

HRAS = test system: HRAS
Method in brief: as §1

MYCN = test system: MYCN
Method in brief: as §1

PHF6 = test system: PHF6
Method in brief: as §1

FBXW7 = test system: FBXW7
Method in brief: as §1

EZH2 = test system: EZH2
Method in brief: as §1

Row | Sequence | 3' UTR reporter interaction score (MYT1L) | 3' UTR reporter interaction score (BRCA2) | 3' UTR reporter interaction score (MYC) | 3' UTR reporter interaction score (MYB) | 3' UTR reporter interaction score (NOTCH1) | 3' UTR reporter interaction score (PHOX2B) | 3' UTR reporter interaction score (TP53) | 3' UTR reporter interaction score (RB1) | 3' UTR reporter interaction score (ZEB2) | 3' UTR reporter interaction score (HRAS) | 3' UTR reporter interaction score (MYCN) | 3' UTR reporter interaction score (PHF6) | 3' UTR reporter interaction score (FBXW7) | 3' UTR reporter interaction score (EZH2)
1 | UGGCUCAGUUCAGCAGGAACAG | 0.53 | 1.1 | -2.14 | 0.0413 | -1.7 | 0.0378 | 0.345 | 0.0253 | 0.984 | -1.16 | 0.921 | -0.0264 | -0.156 | -0.274
2 | UGGGCGUAUCUGUAUGCUA | 0.105 | -0.638 | -0.549 | 0.397 | -2.02 | 2.15 | -0.0916 | -0.659 | 2.53 | -0.235 | 0.906 | 1.09 | 0.752 | -1.3
3 | UGGUAGACUAUGGAACGUA | 0.0286 | -0.722 | -0.304 | 0.96 | 0.639 | -0.373 | -0.283 | 1.85 | 0.356 | -0.461 | 0.966 | -0.619 | 0.552 | -0.991
4 | UGGUCUAGGAUUGUUGGAGGAG | -1.45 | 0.659 | 0.131 | 0.332 | -3.72 | -0.574 | 0.772 | -0.907 | -1.89 | 1.1 | 0.689 | -1.9 | -0.0822 | 1.07
5 | UGGUGCGGAGAGGGCCCACAGUG | 1.6 | -0.582 | -0.919 | -0.475 | 0.612 | 0.217 | -0.894 | 0.451 | 0.607 | -0.688 | 0.131 | 0.575 | 0.508 | -0.738
6 | UGGUGGGCCGCAGAACAUGUGC | 1.92 | -0.495 | 0.0166 | -0.29 | -1.38 | 0.685 | 0.539 | -1.35 | 0.648 | -0.926 | 0.848 | -0.487 | 1.65 | -0.375
7 | UGGUUCUAGACUUGCCAACUA | -0.905 | -1.9 | 0.238 | 0.383 | -0.954 | -0.729 | -0.646 | 0.0711 | 1.08 | 0.292 | 0.807 | 0.0797 | 0.0613 | 0.495
8 | UGGUUGACCAUAGAACAUGCGC | 3.19 | -0.794 | -0.769 | 2.68 | 2.11 | 1.74 | -0.14 | 3.51 | 2.61 | -0.568 | 1.49 | 0.184 | -0.743 | -1.23
9 | UGGUUUACCGUCCCACAUACAU | 1.3 | -0.68 | -0.285 | 0.643 | -0.0746 | 0.385 | -0.635 | 0.158 | 1.07 | -0.0846 | 0.327 | -0.512 | 0.14 | 0.684
10 | UGUAAACAUCCCCGACUGGAAG | 0.873 | -0.00428 | -0.345 | 0.447 | -0.121 | 0.775 | -0.339 | 1.18 | -1.09 | 0.945 | -1 | 0.331 | 0.0307 | 0.0787
11 | UGUAAACAUCCUACACUCAGCU | 0.998 | 0.276 | -0.616 | 0.789 | -0.804 | -0.561 | -0.377 | 0.456 | -1.14 | 1.01 | -0.781 | -1.63 | 0.842 | 0.233
12 | UGUAAACAUCCUACACUCUCAGC | 0.183 | 0.774 | -0.915 | 0.661 | -1.62 | 0.58 | 0.239 | 0.235 | -2.01 | 0.698 | -0.445 | 0.545 | 0.711 | -0.7
13 | UGUAGUGUUUCCUACUUUAUGGA | 1.44 | -3.32 | 0.753 | 0.85 | -0.00364 | 0.885 | -0.138 | -0.511 | -2.54 | 0.941 | 1.22 | -0.93 | -0.472 | 0.133
14 | UGUCACUCGGCUCGGCCCACUAC | 0.664 | 1.08 | -0.146 | 0.0813 | 0.551 | -0.663 | 0.457 | -0.766 | -1.79 | -0.561 | 0.184 | -0.284 | 0.218 | 0.621
15 | UGUCAGUUUGUCAAAUACCCC | 0.484 | -0.428 | 0.119 | 0.7 | 0.533 | 1.35 | -1.17 | 0.229 | 1.58 | 0.221 | 0.673 | -0.327 | -3.7 | -0.235
16 | UGUCUGCCCGCAUGCCUGCCUCU | 0.694 | 0.911 | -0.223 | -1.11 | -0.629 | -1.69 | -0.199 | 0.711 | -0.366 | -2.78 | -1.48 | 1.55 | 0.234 | 1.24
17 | UGUCUUGCAGGCCGUCAUGCA | 0.257 | -0.496 | 0.266 | -0.711 | 0.776 | 0.814 | -1.21 | 1.34 | -2.19 | 1.07 | -0.456 | -0.169 | 0.883 | -0.168
18 | UGUGACAGAUUGAUAACUGAAA | -1.77 | -1.43 | 0.173 | 0.185 | 1.11 | 1.05 | 0.555 | 0.581 | 0.919 | -0.136 | 0.0393 | -0.291 | -0.255 | 0.213

From the supplement of paper PMC5844555
